Results taken from ChEMBL document CHEMBL1201862, “PubChem BioAssay data set” (2004).
Activity calls are given as the source filed them.

Tests used:
[1] = target: Benomyl/methotrexate resistance protein (Candida albicans, UniProt P28873); assay: CaMdr1 efflux pump inhibitor potency, dose response, singleplex, Cherry Pick1 hits (AID 588608); format: functional
[2] = target: Ras and Rab interactor 1/Tyrosine-protein kinase ABL1 (Homo sapiens, UniProt P00519+Q13671); format: functional;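 also: biochemical TR-FRET dose-response test measuring inhibition of binding between Rin1 and Abl proteins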
[3] = target: T1, Orexin receptor type 2 (Homo sapiens, UniProt O43614); assay: Counterscreen assay for antagonists of the orexin 1 receptor (OX1R; HCRTR1): Homogeneous Time Resolved Fluorescence (HTRF)-based cell-based dose response assay for antagonists of the orexin 2 receptor (OX2R; HCRTR2), run by assay provider.; format: functional
T1 sequence (O43614 whole entry): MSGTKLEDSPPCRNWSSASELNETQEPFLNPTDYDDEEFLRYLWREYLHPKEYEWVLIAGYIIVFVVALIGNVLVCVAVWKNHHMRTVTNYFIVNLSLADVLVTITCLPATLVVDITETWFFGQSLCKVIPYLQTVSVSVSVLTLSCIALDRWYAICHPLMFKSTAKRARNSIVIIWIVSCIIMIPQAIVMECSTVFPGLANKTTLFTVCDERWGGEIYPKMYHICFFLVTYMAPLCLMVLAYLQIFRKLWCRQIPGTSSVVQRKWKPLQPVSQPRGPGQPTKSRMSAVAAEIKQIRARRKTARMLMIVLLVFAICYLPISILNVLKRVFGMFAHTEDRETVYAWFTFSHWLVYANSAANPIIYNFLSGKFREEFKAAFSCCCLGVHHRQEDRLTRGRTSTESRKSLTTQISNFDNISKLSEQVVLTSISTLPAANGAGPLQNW

[4] = (§1) Counterscreen for antagonists of the orexin 1 receptor (OX1R; HCRTR1): Fluorescence-based cell-based high throughput dose response assay to identify antagonists of the parental CHO cell line. [Related pubchem assays (depositor defined):AID434989, AID435008, AID463079, AID485270, AID492963, AID492964, AID492965, AID493232, AID504699, AID504701]; format: functional
[5] = target: T1, Orexin receptor type 2; assay: Counterscreen assay for antagonists of the orexin 1 receptor (OX1R; HCRTR1): Fluorescence-based cell-based dose response assay for antagonists of the orexin 2 receptor (OX2R; HCRTR2), run by assay provider.; format: functional
[6] = target: T2, Orexin/Hypocretin receptor type 1 (Homo sapiens, UniProt O43613); assay: Homogeneous Time Resolved Fluorescence (HTRF)-based cell-based high throughput dose response assay for antagonists of the orexin 1 receptor (OX1R; HCRTR1). [Related pubchem assays (depositor defined):AID434989, AID435008, AID463079, AID485270, AID492963, AID492964, AID492965, AID493232, AID504717, AID504718]; format: functional
T2 sequence (O43613 whole entry): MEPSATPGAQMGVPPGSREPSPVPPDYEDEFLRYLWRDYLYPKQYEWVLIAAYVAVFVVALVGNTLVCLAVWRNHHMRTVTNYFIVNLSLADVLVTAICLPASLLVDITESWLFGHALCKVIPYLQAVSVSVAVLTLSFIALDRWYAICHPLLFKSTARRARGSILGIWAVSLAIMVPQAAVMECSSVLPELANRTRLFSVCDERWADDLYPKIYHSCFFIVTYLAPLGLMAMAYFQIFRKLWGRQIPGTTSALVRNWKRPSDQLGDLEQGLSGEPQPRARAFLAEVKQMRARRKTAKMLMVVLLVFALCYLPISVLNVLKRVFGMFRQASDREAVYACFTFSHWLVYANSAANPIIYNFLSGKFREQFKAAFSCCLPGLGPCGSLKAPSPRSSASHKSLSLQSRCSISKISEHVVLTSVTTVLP

[7] = target: T2, Orexin/Hypocretin receptor type 1; assay: Fluorescence-based cell-based high throughput dose response assay for antagonists of the orexin 1 receptor (OX1R; HCRTR1). [Related pubchem assays (depositor defined):AID434989, AID435008, AID463079, AID485270, AID492963, AID492964, AID492965, AID493232, AID504717, AID504718]; format: functional
[8] = system: CHO-K1; assay: as §1, with “Homogeneous time resolved fluorescence (HTRF)-based” for “Fluorescence-based”, “cell-based” for “cell-based high throughput”, “CHO-K1” for “CHO”; format: functional; settings: Cricetulus griseus;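 also: potency for inhibition of ATP-stimulated IP1 production as antagonists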
[9] = inhibitors of SNCA 5'UTR-driven reporter translation, confirmation, H4 neuroglioma cells, luminescence (AID 1988); format: functional, cell-based
[10] = system: Streptococcus sp. 'group A'; assay: growth inhibition of control SK(-) GAS strain, dose response, counter-screen for streptokinase expression inhibitor project, luminescence, kanamycin, BacTiterGlo, confirmation (AID 1900); format: functional, organism-based
[11] = inhibitors of intracellular T. cruzi replication, confirmation, NIH3T3 host cells, beta-gal luminescence (AID 2044); format: functional, cell-based;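 also: intracellular parasites grown in NIH/3T3 mouse fibroblasts as host cells; luminescent beta-galactosidase reporter signal from transgenic T. cruzi replicating inside host cells; inhibitors lower the luminescence signal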
[12] = Luminescence Cell-Based Dose Response HTS to Identify Inhibitors of 5'UTR Stem-Loop Driven Prion Protein mRNA Translation in H4 Neuroglioblastoma Cells. [Related pubchem assays: 1827 (Project Summary), 1813 (Primary HTS)]; format: functional
[13] = system: INS1; assay: beta cell apoptosis inhibitors, cytokine rescue, dose response, luminescence, retest (AID 449756); format: functional, cell-based; settings: Rattus norvegicus;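 also: cell death triggered by IL-1 beta plus TNF-alpha plus IFN-gamma mixture; protective hits raise ATP signal compared with cytokine alone wells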
[14] = NIH-3T3 fibroblast cytotoxicity, dose response, cytotoxicity control for antifungal single agent project, cell-based, Alamar Blue, dry powder (AID 602188); format: functional
[15] = target: ATP-dependent molecular chaperone HSP82 (Candida albicans (strain WO-1) (Yeast), UniProt C4YTQ8); assay: loss of DOC-induced GRE-beta-galactosidase reporter signal, dose response, Hsp90 inhibitor project, S. cerevisiae, luminescence (AID 2400); format: functional, cell-based;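 also: beta-galactosidase luminescence from glucocorticoid response element reporter as proxy for Hsp90 function; inhibitor potency where signal loss means Hsp90 inhibition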
[16] = target: Serine/threonine-protein phosphatase (Candida dubliniensis (strain CD36 / CBS 7987 / NCPF 3949 / NRRLY-17841) (Yeast), UniProt B9W6M3); assay: calcineurin pathway inhibitors in yeast reporter, dose response, S. cerevisiae, CDRE-lacZ, luminescence, secondary (AID 2388); format: functional, cell-based;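 also: yeast reporter cells carrying a calcineurin-responsive lacZ construct stimulated with calcium chloride; luminescent beta-galactosidase reporter signal in whole cells rather than isolated phosphatase activity; potency for inhibition where a drop in reporter signal means calcineurin blockade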
[17] = C. albicans growth with fluconazole, confirmation, fluorescence, retest (AID 2467); format: functional, cell-based
[18] = NIH-3T3 fibroblast cytotoxicity, dose response, cytotoxicity control, cell-based, fluorescence, Alamar Blue, secondary assay (AID 2327); format: functional;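 also: NIH-3T3 mouse fibroblasts cultured with fluconazole at 8 µg/mL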
[19] = cytotoxicity toward NIH3T3 fibroblasts, dose response, counter-screen, cell-based, ATP luminescence, mouse fibroblasts (AID 2010); format: functional;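 also: cells exposed to compound for about 90 hours before reading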
[20] = system: Streptococcus; assay: Group A Streptococcus viability loss, dose response, counter-screen for streptokinase expression inhibitor project, luminescence, BacTiterGlo (AID 1915); format: functional, organism-based;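 also: potency for reduction of bacterial viability or growth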
[21] = inhibitors of firefly luciferase expression or activity, dose response, H4 neuroglioma cells, luminescence (AID 1990); format: functional, cell-based
[22] = target: Tyrosine-protein phosphatase non-receptor type 5 (Homo sapiens, UniProt P54829); assay: STEP phosphatase inhibitors, confirmation, biochemical, fluorescence intensity, uHTS hits (AID 602372); format: functional; settings: read-out: IC50_Mean
[23] = target: T3, Streptokinase A (Streptococcus pyogenes serotype M1, UniProt P10520); assay: S. pyogenes streptokinase expression inhibitors, potency, dose response, plasminogen activation absorbance, OD405 (AID 1914); format: functional, Streptococcus pyogenes M1 GAS;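 also: secreted streptokinase activity via plasminogen activation per viability signal from cell pellet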
T3 sequence (P10520 whole entry): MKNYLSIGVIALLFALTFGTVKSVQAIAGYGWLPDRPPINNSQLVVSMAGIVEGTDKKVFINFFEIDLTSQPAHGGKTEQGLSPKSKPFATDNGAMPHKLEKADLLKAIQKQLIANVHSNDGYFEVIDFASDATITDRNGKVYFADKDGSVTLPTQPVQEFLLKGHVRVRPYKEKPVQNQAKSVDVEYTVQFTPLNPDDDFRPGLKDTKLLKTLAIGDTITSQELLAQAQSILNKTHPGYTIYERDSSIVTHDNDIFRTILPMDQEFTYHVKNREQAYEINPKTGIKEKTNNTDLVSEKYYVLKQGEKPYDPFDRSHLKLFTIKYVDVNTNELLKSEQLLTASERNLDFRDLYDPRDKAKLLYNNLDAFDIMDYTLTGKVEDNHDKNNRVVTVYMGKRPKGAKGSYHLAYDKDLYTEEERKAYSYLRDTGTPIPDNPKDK

[24] = target: Tyrosine-protein phosphatase non-receptor type 11 (Homo sapiens, UniProt Q06124); assay: SHP2 phosphatase inhibition, dose response, selectivity assay for STEP inhibitor project, biochemical (AID 602367); format: functional; settings: read-out: IC50_Mean
[25] = target: Dual specificity protein phosphatase 3 (Homo sapiens, UniProt P51452); assay: VHR phosphatase inhibition, dose response, selectivity assay for STEP inhibitor project, biochemical (AID 602374); format: functional; settings: read-out: IC50_Mean
[26] = target: Potassium voltage-gated channel subfamily KQT member 2 (Rattus norvegicus, UniProt O88943); assay: KCNQ2 potassium channel inhibitors, dose response, cell-based, automated electrophysiology, set II, rat KCNQ2 (AID 588637); format: functional
[27] = target: Melanin-concentrating hormone receptor 1 (Homo sapiens, UniProt Q99705); assay: Late-stage fluorescence-based counterscreen for antagonists of the G-protein coupled receptor 7 (GPR7): cell-based dose response assay to identify antagonists of the melanin-concentrating hormone receptor 1 (MCHR1) Set 6.; format: functional
[28] = target: T4, Neuropeptides B/W receptor type 1 (Homo sapiens, UniProt P48145); assay: GPR7 antagonist potency, late-stage follow-up, cell-based, fluorescence, dose response, set 6 (AID 588583); format: functional
T4 sequence (P48145 whole entry): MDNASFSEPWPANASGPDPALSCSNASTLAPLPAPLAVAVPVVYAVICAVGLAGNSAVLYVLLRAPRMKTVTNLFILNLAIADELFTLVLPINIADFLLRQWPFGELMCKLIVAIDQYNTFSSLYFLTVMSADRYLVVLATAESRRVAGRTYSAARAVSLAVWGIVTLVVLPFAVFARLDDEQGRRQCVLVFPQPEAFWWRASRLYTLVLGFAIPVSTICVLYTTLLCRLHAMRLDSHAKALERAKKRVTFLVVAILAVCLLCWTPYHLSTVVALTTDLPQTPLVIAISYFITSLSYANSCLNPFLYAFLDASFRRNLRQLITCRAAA

[29] = target: Melanocortin receptor 4 (Homo sapiens, UniProt P32245); format: functional, cell-based;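 also: Cell-based assay with luminescence read-out, confirmatory dose-response testing for agonist activity of biased ligands at MC4R; human U2OS cells with tagged receptor and beta-arrestin; potency of agonists that increase receptor coupling to beta-arrestin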
[30] = inhibitors of Vif binding to APOBEC3G peptide, primary screen, biochemical, TR-FRET, GST-Vif 1-94, biotin-A3G peptide, dose response retest (AID 1117319); format: functional;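 also: TR-FRET signal of purified GST-Vif binding a biotinylated A3G peptide; inhibitors lower the FRET signal by blocking Vif and A3G binding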
[31] = target: Mitochondrial peptide methionine sulfoxide reductase (Bos taurus, UniProt P54149); format: functional;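 also: absorbance read-out, biochemical high-throughput dose-response screen for MsrA inhibitors, confirmatory; recombinant bovine MsrA coupled to E. coli TrxB with NADPH and selenocystamine; potency is for inhibitors of MsrA activity on DMSO substrate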
[32] = target: Aurora kinase B (Homo sapiens, UniProt Q96GD4); format: functional
Aurora kinase B, sequence (Q96GD4 whole entry): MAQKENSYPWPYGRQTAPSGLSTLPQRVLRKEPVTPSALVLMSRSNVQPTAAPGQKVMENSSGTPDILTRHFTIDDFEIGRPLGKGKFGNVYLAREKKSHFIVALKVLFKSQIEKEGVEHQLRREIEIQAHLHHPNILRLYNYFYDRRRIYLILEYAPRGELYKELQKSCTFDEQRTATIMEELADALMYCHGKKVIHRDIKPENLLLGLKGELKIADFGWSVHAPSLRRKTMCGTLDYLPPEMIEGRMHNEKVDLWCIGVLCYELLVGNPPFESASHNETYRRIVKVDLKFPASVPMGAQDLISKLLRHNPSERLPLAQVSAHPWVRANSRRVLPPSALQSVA

Melanin-concentrating hormone receptor 1, sequence (Q99705 whole entry): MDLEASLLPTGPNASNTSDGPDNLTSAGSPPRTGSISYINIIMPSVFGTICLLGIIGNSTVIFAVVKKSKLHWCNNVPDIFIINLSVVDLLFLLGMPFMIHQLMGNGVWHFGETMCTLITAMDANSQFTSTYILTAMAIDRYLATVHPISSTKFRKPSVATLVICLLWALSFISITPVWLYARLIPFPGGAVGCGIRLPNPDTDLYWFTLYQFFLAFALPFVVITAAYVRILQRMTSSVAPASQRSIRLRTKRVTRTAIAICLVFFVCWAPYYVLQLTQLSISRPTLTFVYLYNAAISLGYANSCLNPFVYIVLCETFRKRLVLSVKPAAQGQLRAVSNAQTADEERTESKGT
Tyrosine-protein phosphatase non-receptor type 5, sequence (P54829 whole entry): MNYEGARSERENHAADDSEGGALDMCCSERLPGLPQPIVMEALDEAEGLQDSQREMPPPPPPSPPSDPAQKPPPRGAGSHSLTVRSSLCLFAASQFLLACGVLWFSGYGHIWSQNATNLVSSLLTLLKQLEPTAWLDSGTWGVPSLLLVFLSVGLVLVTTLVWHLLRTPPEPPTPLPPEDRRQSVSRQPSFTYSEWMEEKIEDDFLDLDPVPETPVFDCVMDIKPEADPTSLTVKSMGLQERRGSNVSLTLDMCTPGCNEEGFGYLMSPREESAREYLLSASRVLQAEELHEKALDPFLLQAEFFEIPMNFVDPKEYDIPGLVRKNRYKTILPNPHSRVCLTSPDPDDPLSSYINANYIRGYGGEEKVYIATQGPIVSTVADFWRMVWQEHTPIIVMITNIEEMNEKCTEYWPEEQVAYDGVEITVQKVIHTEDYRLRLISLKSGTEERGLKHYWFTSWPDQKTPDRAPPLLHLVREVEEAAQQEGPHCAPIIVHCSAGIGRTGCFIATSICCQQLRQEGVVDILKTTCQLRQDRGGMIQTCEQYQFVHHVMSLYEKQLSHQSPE
Mitochondrial peptide methionine sulfoxide reductase, sequence (P54149 whole entry): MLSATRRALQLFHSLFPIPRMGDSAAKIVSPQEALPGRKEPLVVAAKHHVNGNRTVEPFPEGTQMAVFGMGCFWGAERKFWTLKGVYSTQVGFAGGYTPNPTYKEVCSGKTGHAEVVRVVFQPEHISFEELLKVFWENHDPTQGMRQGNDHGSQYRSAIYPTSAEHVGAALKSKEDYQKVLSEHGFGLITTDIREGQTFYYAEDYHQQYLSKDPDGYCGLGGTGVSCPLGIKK
Ras and Rab interactor 1/Tyrosine-protein kinase ABL1, sequence (P00519 whole entry): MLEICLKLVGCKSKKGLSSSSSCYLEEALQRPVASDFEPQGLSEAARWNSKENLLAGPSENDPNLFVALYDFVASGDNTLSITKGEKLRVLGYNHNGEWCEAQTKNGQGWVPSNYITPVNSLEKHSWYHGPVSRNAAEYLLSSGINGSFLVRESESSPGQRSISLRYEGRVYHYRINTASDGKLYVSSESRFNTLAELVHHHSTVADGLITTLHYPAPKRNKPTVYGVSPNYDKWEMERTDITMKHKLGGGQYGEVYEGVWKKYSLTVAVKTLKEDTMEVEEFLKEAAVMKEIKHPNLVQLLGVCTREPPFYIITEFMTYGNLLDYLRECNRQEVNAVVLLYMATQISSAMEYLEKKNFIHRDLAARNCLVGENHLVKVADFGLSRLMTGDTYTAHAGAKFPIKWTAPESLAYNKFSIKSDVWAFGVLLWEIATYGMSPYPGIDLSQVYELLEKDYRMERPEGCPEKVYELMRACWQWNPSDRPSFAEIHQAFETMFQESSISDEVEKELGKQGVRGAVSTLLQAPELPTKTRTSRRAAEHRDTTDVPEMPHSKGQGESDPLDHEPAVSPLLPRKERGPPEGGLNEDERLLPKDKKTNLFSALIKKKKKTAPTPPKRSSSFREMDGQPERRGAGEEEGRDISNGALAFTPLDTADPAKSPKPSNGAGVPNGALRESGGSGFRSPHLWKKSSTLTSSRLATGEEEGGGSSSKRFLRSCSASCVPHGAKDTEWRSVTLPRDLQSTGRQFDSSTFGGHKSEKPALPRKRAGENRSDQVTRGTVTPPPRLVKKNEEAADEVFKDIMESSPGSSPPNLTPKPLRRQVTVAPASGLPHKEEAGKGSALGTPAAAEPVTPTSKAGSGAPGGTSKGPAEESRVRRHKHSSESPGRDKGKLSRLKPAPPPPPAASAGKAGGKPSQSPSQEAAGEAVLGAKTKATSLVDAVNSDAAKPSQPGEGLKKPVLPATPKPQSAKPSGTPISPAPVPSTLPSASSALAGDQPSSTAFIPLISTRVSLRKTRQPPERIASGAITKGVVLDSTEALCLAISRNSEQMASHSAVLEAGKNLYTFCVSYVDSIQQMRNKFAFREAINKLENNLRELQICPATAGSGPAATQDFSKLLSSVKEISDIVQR
Ras and Rab interactor 1/Tyrosine-protein kinase ABL1, sequence (Q13671 whole entry): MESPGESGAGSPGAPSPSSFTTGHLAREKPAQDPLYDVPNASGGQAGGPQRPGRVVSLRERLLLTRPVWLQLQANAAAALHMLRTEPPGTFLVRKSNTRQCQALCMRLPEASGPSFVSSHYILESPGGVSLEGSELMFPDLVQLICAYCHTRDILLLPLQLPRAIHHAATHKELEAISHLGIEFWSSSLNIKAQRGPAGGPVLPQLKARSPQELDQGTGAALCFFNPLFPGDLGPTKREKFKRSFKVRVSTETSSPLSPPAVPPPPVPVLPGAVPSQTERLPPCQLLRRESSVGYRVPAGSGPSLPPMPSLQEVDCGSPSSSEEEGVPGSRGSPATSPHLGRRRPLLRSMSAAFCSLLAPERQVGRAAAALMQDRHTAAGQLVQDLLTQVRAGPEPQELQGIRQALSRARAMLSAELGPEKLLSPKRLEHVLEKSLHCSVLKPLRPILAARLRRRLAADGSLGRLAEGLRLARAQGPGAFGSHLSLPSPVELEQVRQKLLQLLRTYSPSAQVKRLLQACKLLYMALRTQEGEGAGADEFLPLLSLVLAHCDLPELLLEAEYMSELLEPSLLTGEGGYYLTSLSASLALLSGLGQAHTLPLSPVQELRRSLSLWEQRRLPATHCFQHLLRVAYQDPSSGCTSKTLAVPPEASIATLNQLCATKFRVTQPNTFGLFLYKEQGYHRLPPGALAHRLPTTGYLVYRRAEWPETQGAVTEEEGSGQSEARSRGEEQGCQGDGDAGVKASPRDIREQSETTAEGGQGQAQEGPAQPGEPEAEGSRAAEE
Melanocortin receptor 4, sequence (P32245 whole entry): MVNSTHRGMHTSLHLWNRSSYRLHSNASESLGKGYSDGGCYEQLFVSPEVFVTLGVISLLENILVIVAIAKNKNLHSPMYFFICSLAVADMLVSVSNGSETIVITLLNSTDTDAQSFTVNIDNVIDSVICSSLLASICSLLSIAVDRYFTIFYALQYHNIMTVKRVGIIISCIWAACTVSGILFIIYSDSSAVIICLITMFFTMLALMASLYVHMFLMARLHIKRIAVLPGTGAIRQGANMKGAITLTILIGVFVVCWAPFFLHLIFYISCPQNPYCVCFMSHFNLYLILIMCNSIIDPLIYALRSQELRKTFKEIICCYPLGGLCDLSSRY
Serine/threonine-protein phosphatase, sequence (B9W6M3 whole entry): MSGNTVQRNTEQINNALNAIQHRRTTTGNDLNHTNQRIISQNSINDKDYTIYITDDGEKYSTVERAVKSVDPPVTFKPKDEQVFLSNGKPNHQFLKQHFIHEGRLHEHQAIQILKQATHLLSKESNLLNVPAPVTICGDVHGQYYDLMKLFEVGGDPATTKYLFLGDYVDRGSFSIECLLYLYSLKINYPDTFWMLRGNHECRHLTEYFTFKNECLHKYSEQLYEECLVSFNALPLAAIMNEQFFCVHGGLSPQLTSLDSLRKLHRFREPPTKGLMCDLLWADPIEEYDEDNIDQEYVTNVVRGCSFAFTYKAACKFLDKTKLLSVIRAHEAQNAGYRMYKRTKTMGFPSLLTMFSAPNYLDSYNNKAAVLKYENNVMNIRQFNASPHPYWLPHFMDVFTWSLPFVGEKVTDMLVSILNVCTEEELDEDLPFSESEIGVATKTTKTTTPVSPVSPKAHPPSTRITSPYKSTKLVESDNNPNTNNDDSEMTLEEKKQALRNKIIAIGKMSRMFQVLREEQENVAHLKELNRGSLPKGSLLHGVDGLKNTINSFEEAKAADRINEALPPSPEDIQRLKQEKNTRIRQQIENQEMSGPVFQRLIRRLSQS
Benomyl/methotrexate resistance protein, sequence (P28873 whole entry): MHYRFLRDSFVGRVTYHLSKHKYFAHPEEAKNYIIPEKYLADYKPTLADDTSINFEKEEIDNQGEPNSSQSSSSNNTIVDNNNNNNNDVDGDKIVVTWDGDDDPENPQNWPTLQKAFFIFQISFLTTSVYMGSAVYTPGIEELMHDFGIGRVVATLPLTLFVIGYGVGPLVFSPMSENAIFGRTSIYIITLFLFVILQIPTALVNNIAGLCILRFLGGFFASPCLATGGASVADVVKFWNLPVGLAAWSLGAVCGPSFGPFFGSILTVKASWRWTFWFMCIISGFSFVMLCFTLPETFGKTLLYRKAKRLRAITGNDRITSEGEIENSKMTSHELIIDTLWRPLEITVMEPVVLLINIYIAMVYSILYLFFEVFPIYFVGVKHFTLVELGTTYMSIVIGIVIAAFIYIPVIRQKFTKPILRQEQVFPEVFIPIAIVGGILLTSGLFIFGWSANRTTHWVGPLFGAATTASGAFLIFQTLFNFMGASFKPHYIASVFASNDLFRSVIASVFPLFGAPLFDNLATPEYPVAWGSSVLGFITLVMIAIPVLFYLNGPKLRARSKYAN

Cc1cccc(C)c1-n1c(SCC(=O)N2CC(=O)Nc3ccccc32)nc2ccccc2c1=O
EC50 [1]: 0.01 µM (active)

CCOC(=O)C1CCCN(C(=O)c2cn(C)c(=O)c3cc(OC)c(OC)cc23)C1 (centres undefined)
IC50 [2]: 14.1 µM (inactive)

COc1ccc(N(CC(=O)NCCc2cccc(C)c2)S(=O)(=O)c2c(C)noc2C)cc1
IC50 [3]: 2.27 µM (active) | IC50 [4]: > 49.8 µM (inactive) | IC50 [5]: > 88.8 µM (inactive) | IC50 [6]: 0.653 µM (active) | IC50 [7]: 7.14 µM (active) | IC50 [8]: > 66.2 µM (inactive)

CN1CCN(C(c2ccc(C(F)(F)F)cc2)c2ccc3cccnc3c2O)CC1 (centres undefined)
EC50 [9]: 8.06 µM (active) | EC50 [10]: 2.92 µM (active) | EC50 [11]: 1.64 µM (active) | EC50 [12]: 10.3 µM (active) | AC50 [13]: 2.43 µM (active) | AC50 [14]: 6.73 µM (active) | EC50 [15]: 14 µM (active) | EC50 [16]: > 180 µM (inactive) | EC50 [17]: 0.676 µM (active) | EC50 [18]: > 150 µM (inconclusive) | EC50 [19]: 7.46 µM (active) | EC50 [20]: 2.91 µM (active) | EC50 [21]: 9.1 µM (active)

SC1=NC(C23CC4CC(CC(C4)C2)C3)=CC(c2ccc3c(c2)OCO3)N1 (centres undefined)
EC50 [10]: 13.6 µM (active) | EC50 [11]: 2.44 µM (active) | IC50 [22]: 56.8 µM (inactive) | EC50 [23]: 22.5 µM (active) | IC50 [24]: 15 µM (active) | EC50 [19]: > 60 µM (not active) | EC50 [20]: > 150 µM (not active) | IC50 [25]: 3.52 µM (active)

O=C(COc1ccc(Cl)cc1Cl)N(c1ccccn1)C1CCCCC1
IC50 [26]: 0.0699 µM (active)

C=CCNC(=O)CCC(=O)NNc1nc2ccccc2c2nc(-c3ccccc3)nn12
IC50 [3]: > 50 µM (inactive) | IC50 [4]: > 49.7 µM (inactive) | IC50 [5]: > 88.8 µM (inactive) | IC50 [6]: 1.2 µM (active) | IC50 [7]: 6.87 µM (active) | IC50 [8]: > 66.2 µM (inactive)

N#CC(c1c(Cl)cnn(Cc2cccc3ccccc23)c1=O)c1csc2ccccc12 (centres undefined)
IC50 [27]: > 20 µM (inactive) | IC50 [28]: > 20 µM (inactive)

CC(C#N)c1c(Cl)cnn(Cc2cccc3ccccc23)c1=O (centres undefined)
IC50 [27]: 3.1 µM (active) | IC50 [28]: 3.1 µM (active)

CC(=O)Nc1cc(-c2ccc(CO)cc2)cn2c(-c3cccc(C(F)(F)F)c3)cnc12
EC50 [29]: > 89.2 µM (inactive)

NC(=S)N/N=C/c1ccc(-c2cccc([N+](=O)[O-])c2)o1
IC50 [30]: > 100 µM (active) | IC50 [31]: 155 µM (inactive)

O=C(O)c1ccccc1Nc1ccnc(Nc2ccc(O)cc2)n1
Ki [32]: 0.002 µM (active)
